Values quoted from earlier work in publication PMC12308805, “Ultrahigh-Throughput Virtual Screening Strategies against PPI Targets: A Case Study of STAT Inhibitors” (Journal of Chemical Information and Modeling, 2025).
Square brackets hold non-standard residues; d marks the D form. Peptide text beside a SMILES is read from it. * marks the point of attachment. Phe(4-tetrazol-5-yl) = N[C@@H](Cc1ccc(-c2nnn[nH]2)cc1)C(=O)O; pY = N[C@@H](Cc1ccc(OP(=O)(O)O)cc1)C(=O)O; aIle = CC[C@@H](C)[C@H](N)C(=O)O; AMC = Cc1cc(=O)oc2cc(N*)ccc12; Isobutyryl = CC(C)C(=O)*; Boc = CC(C)(C)OC(=O)*

System: STAT3
Details: cited from earlier work

SMILES	Type (known STAT3 active)
CC(C)C[C@H](NC(=O)/C=C/c1ccc(OP(=O)(O)O)cc1)C(=O)N1CCC[C@H]1C(=O)N[C@H](C)CCC(N)=O [CHEMBL578635]	Active

Same assay, conditions: sheet 6QHD_actives_decoys, retrospective screening set for STAT3 SH2 domain (PDB 6QHD); decoys are presumed inactives, not tested; ref DUD-E; cited from earlier work

SMILES	Type
CCN(CC)S(=O)(=O)c1ccc(NC(=O)CCCCCCCC(=O)Nc2ccc(S(=O)(=O)N(CC)CC)cc2)cc1 [Decoy744]	Inactive (Decoy)
COC(=O)Cc1c(C(=O)OC)sc(NC(=O)CSc2nc(C(C)(C)C)n[nH]2)c1C(=O)OC [Decoy810]	Inactive (Decoy)
CCSc1nnc(NC(=O)CSc2nnc(CNC(=O)c3cccs3)n2-c2ccccc2OC)s1 [Decoy853]	Inactive (Decoy)
COc1ccc([N+](=O)[O-])cc1N(C[C@H](O)CN(Cc1ccccc1)Cc1ccccc1)S(=O)(=O)c1ccccc1 [Decoy741]	Inactive (Decoy)
COc1c([C@@H]2OC[C@H](OC(C)=O)[C@@H](OC(C)=O)[C@H]2OC(C)=O)c(O)cc2oc(-c3ccc(O[C@H]4O[C@@H](CO)[C@@H](O)[C@@H](O)[C@H]4O)cc3)cc(=O)c12 [Decoy774]	Inactive (Decoy)
C=CCSc1ccccc1NC(=O)CSc1nnc(N/N=C/c2c(O)ccc3ccccc23)n1N [Decoy924]	Inactive (Decoy)
Cc1ccc(S(=O)(=O)Nc2ccccc2/C=N/CC(O)C/N=C/c2ccccc2NS(=O)(=O)c2ccc(C)cc2)cc1 [Decoy922]	Inactive (Decoy)
C/C(=C(/CCO)SS/C(CCO)=C(\C)N(C=O)Cc1cnc(C)nc1N)N(C=O)Cc1cnc(C)nc1N [Decoy780]	Inactive (Decoy)
COc1cc(Cc2ccc(NC(=O)CSc3nc(N)cc(=O)[nH]3)c(OC)c2)ccc1NC(=O)CSc1nc(N)cc(=O)[nH]1 [Decoy750]	Inactive (Decoy)
CC(=O)[C@@H]1CC[C@H]2[C@H]3CC=C4C[C@@H](O[C@@H]5O[C@H](CO)[C@@H](O)[C@H](O)[C@H]5O[C@@H]5O[C@H](CO)[C@@H](O)[C@H](O)[C@H]5O)CC[C@]4(C)[C@@H]3CC[C@]12C [Decoy895]	Inactive (Decoy)
CCOC(=O)c1c(NC(=O)c2cc(OC)c(OC)c(OC)c2)sc(C(=O)Nc2ccc(OC)cc2OC)c1C [Decoy754]	Inactive (Decoy)
CCN(CC)Cc1nnn(-c2nonc2N)c1C(=O)N/N=C(\C)c1ccc(OCc2ccc(Cl)cc2Cl)cc1 [Decoy952]	Inactive (Decoy)
CCN(CC)c1ccc(NC(=O)CSc2n[nH]c(N/N=C/c3cc(OC)c(O)cc3[N+](=O)[O-])n2)cc1 [Decoy906]	Inactive (Decoy)
OC[C@@H](O)[C@H](O[C@@H]1O[C@H](CO)[C@@H](O)[C@H](O)[C@H]1O)[C@@H](O)C(/C=N/Nc1ccccc1)=N/Nc1ccccc1 [Decoy791]	Inactive (Decoy)
Cc1ccc(OCC(=O)NNC(=O)CCCCC(=O)NNC(=O)COc2ccc(C)cc2Br)c(Br)c1 [Decoy784]	Inactive (Decoy)
COc1ccccc1OCCNC[C@H](O)COc1cccc2c1c1ccccc1n2C[C@H](O)COc1cccc2[nH]c3ccccc3c12 [Decoy900]	Inactive (Decoy)
CCN(CC)c1ccc(/C=N/Nc2nnc(SCC(=O)Nc3ccc(OC)cc3OC)n2N)c(O)c1 [Decoy877]	Inactive (Decoy)
CC[C@@H](C)[C@H](NC(=O)OC(C)(C)C)C(=O)N[C@@H](CCC(=O)O)C(=O)NCC(=O)N[C@@H](CCCNC(=N)N)C(=O)Nc1ccc2c(C)cc(=O)oc2c1 [Decoy753] (Boc-[aIle]EGR-{AMC})	Inactive (Decoy)
COc1c(O)ccc(/C=N/NC(=O)/C(=C\c2ccc(N(C)C)cc2)NC(=O)c2ccccc2)c1[N+](=O)[O-] [Decoy941]	Inactive (Decoy)
CCCCCCCCO[C@@H]1[C@@H](O)[C@@H](O)O[C@H](Cn2c(=O)n(C[C@H]3O[C@H](O)[C@H](O)[C@@H](OCCCCCCCC)[C@@H]3O)c3cc(Cl)ccc32)[C@H]1O [Decoy956]	Inactive (Decoy)
CC(C)(C)NS(=O)(=O)c1ccc(NC(=O)CSc2nnc(N/N=C/c3cccc(O)c3)n2N)cc1 [Decoy849]	Inactive (Decoy)
O=C(NC(CO[C@H]1[C@H](O)[C@H](O)[C@H](O)O[C@@H]1CO)CO[C@H]1[C@H](O)[C@H](O)[C@@H](O)O[C@@H]1CO)c1ccc(C2(C(F)(F)F)N=N2)cc1 (stereo partly shown) [Decoy734]	Inactive (Decoy)

Same assay, conditions: sheet 6QHD_actives_decoys; known STAT3 actives of the retrospective screening set; ref ChEMBL / literature; cited from earlier work

SMILES	Type (known STAT3 active)
CNC(=O)[C@H](CCC(N)=O)NC(=O)[C@@H]1Cc2cccc3c2N1C(=O)[C@@H](NC(=O)/C=C/c1ccc(OP(=O)(O)O)cc1)CC3 [CHEMBL454365]	Active
CC(=O)N[C@@H](Cc1ccc(OP(=O)(O)O)cc1)C(=O)N[C@@H](CC(C)C)C(=O)N1CCC[C@H]1C(=O)N[C@@H](CCC(N)=O)C(=O)O [CHEMBL382544] (Ac-[pY]LPQ-OH)	Active
CC(=O)N[C@@H](Cc1ccc(-c2nn[nH]n2)cc1)C(=O)N[C@@H](CC(C)C)C(=O)N1CCC[C@H]1C(=O)N[C@@H](CCC(N)=O)C(=O)N[C@H](C(=O)N[C@H](C(=O)O)C(C)C)[C@@H](C)O [CHEMBL439390] (Ac-[Phe(4-tetrazol-5-yl)]LPQTV-OH)	Active

Same assay, conditions: sheet 6QHD_actives_decoys; retrospective screening set for STAT3 SH2 domain (PDB 6QHD); […]; ref DUD-E; cited from earlier work

SMILES	Type
Cc1cc(NS(=O)(=O)c2ccc(NC(=O)CCCCC(=O)Nc3ccc(S(=O)(=O)Nc4cc(C)on4)cc3)cc2)no1 [Decoy592]	Inactive (Decoy)
COc1ccc(S(=O)(=O)Nc2ccc(S(=O)(=O)Nc3nc(C)cc(C)n3)cc2)cc1F [Decoy560]	Inactive (Decoy)

Same assay, conditions: sheet 6QHD_actives_decoys; retrospective screening set for STAT3 SH2 domain (PDB 6QHD); decoys generated with DUD-E and presumed inactive, not tested; ref DUD-E; cited from earlier work

SMILES	Type
COc1cc(O)c(C(C)=O)c(O[C@@H]2O[C@@H](CO[C@H]3O[C@@H](CO)[C@@H](O)[C@@H](O)[C@H]3O)[C@@H](O)[C@@H](O)[C@H]2O)c1 [Decoy717]	Inactive (Decoy)
CC[C@@H]1Oc2ccc(S(=O)(=O)N3CCN(C(=O)CNC(=O)c4cccs4)CC3)cc2NC1=O [Decoy604]	Inactive (Decoy)
COc1ccc(NC(=O)C2=C(C)NC(SCC(=O)Nc3cccc(OC)c3)=C(C#N)[C@@H]2c2ccco2)cc1 [Decoy357]	Inactive (Decoy)
O=S(=O)(O)c1cc(S(=O)(=O)O)c2c(/N=N/c3ccc([C@H](c4ccc(/N=N/c5ccc(O)cc5)cc4)C4CCCCC4)cc3)c(O)ccc2c1 [Decoy555]	Inactive (Decoy)
COc1ccc(Cl)cc1N/C(N)=N\c1nc(CSc2nnnn2-c2ccccc2)cc(=O)[nH]1 [Decoy678]	Inactive (Decoy)
Cc1cc(C)nc(N/C(=N\C(=S)NCCCN2CCOCC2)Nc2ccc(Cn3cncn3)cc2)n1 [Decoy399]	Inactive (Decoy)
Cc1ccc(NC(=O)NC[C@@H](C)Cn2cccn2)cc1NC(=O)NC[C@H](C)Cn1cccn1 [Decoy618]	Inactive (Decoy)
CCCCOc1ccc([C@@H]2C(C(=O)c3nc4c(C)cccn4c3C)=C(O)C(=O)N2CCN(C)C)cc1OCC [Decoy578]	Inactive (Decoy)
COc1ccc(S(=O)(=O)NNC(=O)CCCCC(=O)NNS(=O)(=O)c2ccc(OC)cc2)cc1 [Decoy571]	Inactive (Decoy)
CCCC[C@@]1(c2ccc(F)cc2)NC(=O)N(CC(=O)Nc2ccc(S(=O)(=O)N(CC)CC)cc2)C1=O [Decoy682]	Inactive (Decoy)
NS(=O)(=O)c1ccc(NC(=O)CSc2ccc(NC(=O)c3cccc([N+](=O)[O-])c3)cc2)cc1 [Decoy391]	Inactive (Decoy)
COC(=O)c1ccc(NC(=O)CSc2nc(N)c(NC(=O)c3ccc(Br)o3)c(=O)[nH]2)cc1 [Decoy351]	Inactive (Decoy)
COC(=O)c1[nH]c(C)c(C(=O)C2=C(O)C(=O)N(CCCN3CCOCC3)[C@@H]2c2cc(OC)c(OC)c(OC)c2)c1C [Decoy711]	Inactive (Decoy)
COc1cc(NC(=S)/N=C(\NCCc2c[nH]cn2)Nc2nc(C)cc(C)n2)c(OC)cc1Cl [Decoy651]	Inactive (Decoy)
NC(=O)CSc1nnc(NC(=O)CSc2nnc(N/N=C/c3cccc4ccccc34)n2N)s1 [Decoy376]	Inactive (Decoy)
C=CCOC(=O)[C@H]1O[C@@H](OC(=O)c2cc(S(N)(=O)=O)c(Cl)cc2NCc2ccco2)[C@H](O)[C@@H](O)[C@@H]1O [Decoy370]	Inactive (Decoy)
CN(C)S(=O)(=O)c1cccc(C(=O)NNC(=O)c2cn(-c3ccccc3)nc2-c2cccnc2)c1 [Decoy350]	Inactive (Decoy)
CN(Cc1cnc2nc(N)nc(N)c2n1)c1ccc(C(=O)N[C@H](CCC(=O)NCCNC(=O)CCCC[C@@H]2SC[C@@H]3NC(=O)N[C@@H]32)C(=O)O)cc1 [Decoy666]	Inactive (Decoy)
O=C(O)c1cccc(NC(=O)[C@@H]2C[C@H](SS[C@@H]3CN[C@H](C(=O)Nc4cccc(C(=O)O)c4)C3)CN2)c1 [Decoy613]	Inactive (Decoy)
COc1cc(NC(=O)CSc2n[nH]c(N/N=C/c3cc([N+](=O)[O-])ccc3O)n2)ccc1Cl [Decoy500]	Inactive (Decoy)
O=C(CCSc1n[nH]c(N/N=C/c2cccc(Br)c2)n1)Nc1ccccc1[N+](=O)[O-] [Decoy421]	Inactive (Decoy)
COc1c([C@@H]2OC[C@H](OC(C)=O)[C@@H](OC(C)=O)[C@H]2OC(C)=O)c(O)cc2oc(-c3ccc(O[C@H]4O[C@@H](CO)[C@@H](O)[C@@H](O)[C@H]4O)cc3)cc(=O)c12 [Decoy411]	Inactive (Decoy)
COC(=O)[C@@H]1[C@H](O)[C@H](C)[C@H](O)O[C@@H]1[C@H](C)[C@H](O)[C@@H](C)/C=C\C=C(/C)C(=O)Nc1c(C)c(OC(C)=O)c2c(c1O)C(=O)C(C)=C1OCOC(/C(C)=C/C(C)=O)=C12 [Decoy345]	Inactive (Decoy)
CCN(CC)S(=O)(=O)c1cc(NC(=O)CSc2nnc(C(F)(F)F)n2N)ccc1C [Decoy478]	Inactive (Decoy)
Cc1nn(C)c(C)c1CCCN(C)c1ccc(NS(=O)(=O)c2ccc(C(C)C)cc2)cc1C(=O)O [Decoy642]	Inactive (Decoy)
CNC(=O)[C@H](CC(C)C)NC(=O)[C@H](Cc1c[nH]cn1)NC(=O)[C@@H](C)NC(=O)[C@@H](NC(=O)[C@H](C)NC(=O)[C@H](Cc1c[nH]c2ccccc12)NC(=O)[C@H](Cc1cnc[nH]1)NC(=O)C(C)C)C(C)C [Decoy626] (Isobutyryl-HWAV[dA]HL-NHMe)	Inactive (Decoy)
CCN[C@H](c1cc(Br)ccc1Cl)c1cc(Br)ccc1Br [Decoy479]	Inactive (Decoy)
